Measurements reported in ChEMBL document CHEMBL5233219, “Diarylamides in anticancer drug discovery: A review of pre-clinical and clinical investigations” (Eur J Med Chem, 2020).

What was measured:
[1] = Antiproliferative activity against human A375P cells; format: functional, cell-based
[2] = system: MCF7; test: Anticancer activity against human MCF7 cells assessed as inhibition of cell growth; format: functional; set-up: scale not given: the % may be the effect or the level left
[3] = system: MDA-MB-468; test: Anticancer activity against human MDA-MB-468 cells assessed as inhibition of cell growth; format: functional; set-up: scale not given: the % may be the effect or the level left
[4] = system: MOLT-4; test: Anticancer activity against human MOLT-4 cells assessed as inhibition of cell growth; format: functional; set-up: scale not given: the % may be the effect or the level left
[5] = system: HS27; test: Cytotoxicity against human HS27 cells; format: functional, cell-based
[6] = Cytotoxicity against human A375P cells; format: functional, cell-based
[7] = Cytotoxicity against human HUVEC cells; format: toxicity, cell-based
[8] = system: Panel NCI-60 (60 carcinoma cell lines); test: Antiproliferative activity against human Panel NCI-60 (60 carcinoma cell lines) assessed as reduction in cell viability at 10 uM; format: functional
[9] = Antitumor activity against human OVCAR cells implanted in mouse assessed as tumor growth inhibition; format: functional
[10] = Antiproliferative activity against human OVCAR assessed as reduction in cell viability; format: functional, cell-based
[11] = Inhibition of tyrosine kinase (unknown origin); set-up: species or system Homo sapiens
[12] = Half life in human; format: ADME
[13] = Drug absorption in mouse at 400 mg/kg, po; format: ADME, organism-based; settings: in vivo, read-out: Drug absorption
[14] = Drug excretion in rat feces assessed as cumulative amount of unchanged drug excreted at 10 mg/kg, po; format: ADME, organism-based; settings: faeces, read-out: Drug excretion
[15] = Tmax in human; format: ADME
[16] = system: SCH; test: Antiproliferative activity against human SCH cells assessed as reduction in cell viability; format: functional, cell-based
[17] = Oral bioavailability in mouse at 150 to 400 mg/kg administered twice daily; format: ADME, organism-based; settings: in vivo, dose 150-400 mg/kg
[18] = Plasma concentration in mouse at 150 to 400 mg/kg, po administered twice daily; format: ADME, organism-based; settings: in vivo, dose 150-400 mg/kg
[19] = Half life in mouse at 150 to 400 mg/kg, po administered twice daily; format: ADME, organism-based; settings: in vivo, dose 150-400 mg/kg
[20] = AUC in mouse at 150 to 400 mg/kg, po administered twice daily; format: ADME, organism-based; set-up: route po; settings: in vivo, dose 150-400 mg/kg
[21] = Plasma protein binding in mouse at 150 to 400 mg/kg, po administered twice daily; format: ADME, organism-based; settings: dose 150-400 mg/kg, read-out: PPB (converted)
[22] = mouse, in vivo, po
Description: Volume of distribution in mouse at 150 to 400 mg/kg, po administered twice daily

[23] = system: SK-OV-3; test: Antiproliferative activity against human SK-OV-3 cells assessed as inhibition of cell growth relative to control; format: functional; set-up: scale not given: the % may be the effect or the level left
[24] = system: IGROV-1; test: Antiproliferative activity against human IGROV-1 cells assessed as inhibition of cell growth relative to control; format: functional; set-up: scale not given: the % may be the effect or the level left
[25] = system: DU-145; test: Antiproliferative activity against human DU-145 cells assessed as inhibition of cell growth; format: functional, cell-based
[26] = system: OVCAR-3; test: Antiproliferative activity against human OVCAR-3 cells assessed as inhibition of cell growth; format: functional, cell-based
[27] = system: T47D; test: Antiproliferative activity against human T47D cells assessed as inhibition of cell growth relative to control; format: functional; set-up: scale not given: the % may be the effect or the level left
[28] = molecular target: T1, Macrophage colony-stimulating factor 1 receptor (Homo sapiens, UniProt P07333); test: Inhibition of FMS (unknown origin) relative to control; settings: concentration not given here
T1 sequence (P07333 whole entry): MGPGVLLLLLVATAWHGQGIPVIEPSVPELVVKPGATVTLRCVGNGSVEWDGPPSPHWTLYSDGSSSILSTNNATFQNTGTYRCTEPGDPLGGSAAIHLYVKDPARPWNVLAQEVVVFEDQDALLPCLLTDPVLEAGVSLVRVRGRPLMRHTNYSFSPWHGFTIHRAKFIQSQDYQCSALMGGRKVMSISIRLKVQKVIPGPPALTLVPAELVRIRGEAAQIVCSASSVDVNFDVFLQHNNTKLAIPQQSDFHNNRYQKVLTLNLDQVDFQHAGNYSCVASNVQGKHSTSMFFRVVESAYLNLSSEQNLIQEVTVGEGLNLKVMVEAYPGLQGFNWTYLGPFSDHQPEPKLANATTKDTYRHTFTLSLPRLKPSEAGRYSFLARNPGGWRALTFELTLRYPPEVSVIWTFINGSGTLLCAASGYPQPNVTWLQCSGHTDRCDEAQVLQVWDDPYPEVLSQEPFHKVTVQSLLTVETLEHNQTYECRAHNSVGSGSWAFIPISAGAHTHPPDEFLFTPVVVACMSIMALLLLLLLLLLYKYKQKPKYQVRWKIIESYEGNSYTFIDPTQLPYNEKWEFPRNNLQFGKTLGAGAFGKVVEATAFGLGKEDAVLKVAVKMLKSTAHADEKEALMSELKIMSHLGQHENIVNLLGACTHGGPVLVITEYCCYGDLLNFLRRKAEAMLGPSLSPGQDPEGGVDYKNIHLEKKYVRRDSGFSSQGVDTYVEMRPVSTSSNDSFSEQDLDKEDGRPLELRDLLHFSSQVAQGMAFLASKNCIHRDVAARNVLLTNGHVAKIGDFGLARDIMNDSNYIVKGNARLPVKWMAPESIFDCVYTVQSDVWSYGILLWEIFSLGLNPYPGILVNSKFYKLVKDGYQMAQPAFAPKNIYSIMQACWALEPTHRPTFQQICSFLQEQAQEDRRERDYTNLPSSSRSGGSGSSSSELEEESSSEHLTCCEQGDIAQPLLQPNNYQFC

[29] = molecular target: T1, Macrophage colony-stimulating factor 1 receptor; test: Inhibition of FMS (unknown origin)
[30] = system: SK-OV-3; test: Antiproliferative activity against human SK-OV-3 cells assessed as inhibition of cell growth; format: functional, cell-based
[31] = system: Macrophage; test: Cytotoxicity against human Macrophage cells relative to control; format: functional
[32] = Inhibition of tyrosine kinase (unknown origin) in human LNCaP-abl cells
[33] = Oral bioavailability in mouse; format: ADME, organism-based; settings: in vivo
[34] = Cmax in mouse plasma; format: ADME, cell-free
[35] = Cmax in female mouse plasma; format: ADME, cell-free
[36] = Cmax in male mouse plasma; format: ADME, cell-free
[37] = molecular target: T2, Cytochrome P450 1A2 (Homo sapiens, UniProt P05177); test: Inhibition of CYP1A2 (unknown origin); format: ADME
T2 sequence (P05177 whole entry): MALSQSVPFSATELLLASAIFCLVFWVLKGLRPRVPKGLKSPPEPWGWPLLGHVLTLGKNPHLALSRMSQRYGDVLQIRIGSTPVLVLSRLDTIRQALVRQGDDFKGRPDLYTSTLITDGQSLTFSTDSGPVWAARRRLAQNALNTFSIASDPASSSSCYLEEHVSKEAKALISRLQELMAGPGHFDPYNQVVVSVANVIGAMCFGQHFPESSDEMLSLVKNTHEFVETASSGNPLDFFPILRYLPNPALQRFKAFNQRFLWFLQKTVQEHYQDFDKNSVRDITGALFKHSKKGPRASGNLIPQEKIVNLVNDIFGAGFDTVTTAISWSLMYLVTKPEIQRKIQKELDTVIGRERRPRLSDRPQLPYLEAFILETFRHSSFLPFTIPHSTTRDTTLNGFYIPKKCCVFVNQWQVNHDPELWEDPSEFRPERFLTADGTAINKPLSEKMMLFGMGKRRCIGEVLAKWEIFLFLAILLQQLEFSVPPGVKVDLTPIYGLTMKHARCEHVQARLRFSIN

[38] = molecular target: Cytochrome P450 2D6 (Homo sapiens, UniProt P10635); test: Inhibition of CYP2D6 (unknown origin); format: ADME
Chain of Cytochrome P450 2D6 (P10635 whole entry): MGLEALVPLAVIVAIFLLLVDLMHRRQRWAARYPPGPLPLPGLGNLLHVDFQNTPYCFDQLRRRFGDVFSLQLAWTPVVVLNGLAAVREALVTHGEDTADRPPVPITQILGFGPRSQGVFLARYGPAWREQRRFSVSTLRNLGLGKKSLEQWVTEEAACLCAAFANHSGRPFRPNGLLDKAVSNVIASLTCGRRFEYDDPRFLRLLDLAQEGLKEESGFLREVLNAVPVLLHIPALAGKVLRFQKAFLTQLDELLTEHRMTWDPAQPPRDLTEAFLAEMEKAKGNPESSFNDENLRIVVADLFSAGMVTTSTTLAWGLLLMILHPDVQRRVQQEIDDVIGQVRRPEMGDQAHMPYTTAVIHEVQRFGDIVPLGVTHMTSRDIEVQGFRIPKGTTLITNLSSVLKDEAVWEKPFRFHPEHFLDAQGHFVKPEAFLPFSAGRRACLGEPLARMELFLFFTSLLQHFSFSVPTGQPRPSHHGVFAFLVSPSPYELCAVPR

[39] = molecular target: Cytochrome P450 2C19 (Homo sapiens, UniProt P33261); test: Inhibition of CYP2C19 (unknown origin); format: ADME
Chain of Cytochrome P450 2C19 (P33261 whole entry): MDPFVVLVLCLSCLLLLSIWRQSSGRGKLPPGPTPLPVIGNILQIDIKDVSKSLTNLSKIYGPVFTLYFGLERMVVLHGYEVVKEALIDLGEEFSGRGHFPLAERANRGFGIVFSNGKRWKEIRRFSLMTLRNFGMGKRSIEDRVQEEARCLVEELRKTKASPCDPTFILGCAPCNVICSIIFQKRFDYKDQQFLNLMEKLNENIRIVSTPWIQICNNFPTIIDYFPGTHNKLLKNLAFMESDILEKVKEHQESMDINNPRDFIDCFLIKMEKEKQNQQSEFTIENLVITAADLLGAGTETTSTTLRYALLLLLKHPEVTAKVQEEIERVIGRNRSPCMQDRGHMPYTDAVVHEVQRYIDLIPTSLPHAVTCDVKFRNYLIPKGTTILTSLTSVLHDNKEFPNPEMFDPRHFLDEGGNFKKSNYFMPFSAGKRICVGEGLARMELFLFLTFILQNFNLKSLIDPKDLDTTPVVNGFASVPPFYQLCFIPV

[40] = Oral bioavailability in mouse at 400 to 600 mg/kg; format: ADME, organism-based; settings: in vivo, dose 400-600 mg/kg
[41] = Plasma concentration in mouse at 400 to 600 mg/kg, po administered once daily; format: ADME, organism-based; settings: in vivo, dose 400-600 mg/kg
[42] = AUC in mouse at 400 to 600 mg/kg, po administered once daily; format: ADME, organism-based; set-up: route po; settings: in vivo, dose 400-600 mg/kg
[43] = system: Panel NCI-60 (60 carcinoma cell lines); test: Antiproliferative activity against human Panel NCI-60 (60 carcinoma cell lines) assessed as reduction in cell viability; format: functional
[44] = system: OVCAR-5; test: Antiproliferative activity against human OVCAR-5 cells assessed as reduction in cell viability; format: functional, cell-based
[45] = Volume of distribution in human; format: ADME
[46] = Oral bioavailability in mouse at 100 mg/kg administered once daily; format: ADME, organism-based; settings: in vivo
[47] = Plasma concentration in mouse at 100 mg/kg, po administered once daily; format: ADME, organism-based; settings: in vivo
[48] = Half life in mouse at 100 mg/kg, po administered once daily; settings: in vivo
[49] = Volume of distribution in mouse at 100 mg/kg, po administered once daily; format: ADME, organism-based; settings: in vivo
[50] = AUC in mouse at 100 mg/kg, po administered once daily; format: ADME, organism-based; set-up: dose 100 mg/kg, route po; settings: in vivo
[51] = Plasma protein binding in mouse at 100 mg/kg, po administered once daily; format: ADME, organism-based; settings: read-out: PPB (converted)

SMILES: Cc1ccc(NC(=O)Nc2cc(F)cc(C(F)(F)F)c2)cc1Nc1cc(=O)[nH]c(N)n1
- IC50 [1]: 190 nM

SMILES: COc1cc2cc3c(nc2cc1OC)CCN3Cc1ccc(NC(=O)c2ccc(Cl)c(C(F)(F)F)c2)cc1
- Activity [2]: 84.97%
- Activity [3]: 87.13%
- Activity [4]: 43.19%

SMILES: CCN1CCN(Cc2ccc(NC(=O)Nc3ccc(-n4ccc5c(NC(=O)c6ccccc6)nccc54)cc3)cc2C(F)(F)F)CC1
- IC50 [5]: 7800 nM
- IC50 [6]: 100 nM

SMILES: Cc1nc(Nc2ccc(NC(=O)c3cccc(Cl)c3)cc2)c2nc(-c3ccc(Cl)cc3)oc2n1
- IC50 [7]: 1310 nM

SMILES: COc1ccc(-c2nc3c(Nc4ccc(NC(=O)c5cccc(Cl)c5)cc4)nc(C)nc3o2)cc1
- IC50 [7]: 1280 nM

SMILES: Cc1ccc(NC(=O)Nc2ccc(Cl)nc2)cc1Nc1cc(=O)[nH]c(N)n1
- IC50 [1]: 190 nM

SMILES: O=C(Nc1ccc(-n2ccc3c(NC(=O)c4ccccc4)ncnc32)cc1)Nc1cccc(Cl)c1Cl
- Activity [8]: 109.18%
- TGI [9]: 1800 nM
- IC50 [10]: 3670 nM

SMILES: Cc1cn(-c2cc(NC(=O)c3ccc(C)c(Nc4nccc(-c5cccnc5)n4)c3)cc(C(F)(F)F)c2)cn1 [NILOTINIB]
- IC50 [11]: 188 nM
- half-life [12]: 17 h
- Fa [13]: 35%
- dose excreted [14]: 69%
- Tmax [15]: 3 h
- IC50 [16]: 14600 nM
- bioavailability [17]: 25%
- Cp [18]: 445 ng/mL
- half-life [19]: 13 h
- AUC [20]: 11.9 ng·h/mL
- fraction unbound [21]: 0.02
- Vd [22]: 0.55 L/kg

SMILES: O=C(Nc1cccc(-n2ccc3c(NC(=O)c4ccccc4)nccc32)c1)c1ccc(N2CCOCC2)c(C(F)(F)F)c1
- Activity [23]: 106.2%
- Activity [24]: 90%
- IC50 [25]: 98 nM
- IC50 [26]: 45 nM
- Activity [27]: 90%
- inhibition [28]: 90%
- IC50 [29]: 30 nM
- IC50 [30]: 3600 nM
- IC50 [5]: 300 nM
- Activity [31]: 52%

SMILES: CNC(=O)c1cc(Oc2ccc(NC(=O)Nc3ccc(Cl)c(C(F)(F)F)c3)cc2)ccn1 [SORAFENIB]
- IC50 [5]: 7800 nM
- IC50 [6]: 95 nM

SMILES: Cc1ccc(NC(=O)c2ccc(CN3CCN(C)CC3)cc2)cc1Nc1nccc(-c2cccnc2)n1 [IMATINIB]
- IC50 [11]: 30 nM
- IC50 [32]: 188 nM
- bioavailability [33]: 98.3%
- Cmax [34]: 1.9 ng/mL
- Cmax [35]: 1080 ng/mL
- Cmax [36]: 921 ng/mL
- inhibition (INH) [37]: 10%
- inhibition (INH) [38]: 10%
- inhibition (INH) [39]: 10%
- IC50 [16]: 4700 nM
- bioavailability [40]: 98.3%
- Cp [41]: 3.7 ng/mL
- AUC [42]: 24800 ng·h/mL

SMILES: COc1ccc(-c2nn(-c3ccc(NC(=O)c4ccc(Cl)c(C(F)(F)F)c4)cc3)cc2-c2ccncc2)cc1Cl
- Activity [43]: 103.16%
- IC50 [44]: 1330 nM

SMILES: Cc1nc(Nc2ncc(C(=O)Nc3c(C)cccc3Cl)s2)cc(N2CCN(CCO)CC2)n1.O [DASATINIB]
- Vd [45]: 2.05 L
- bioavailability [46]: 14%
- Cp [47]: 129 ng/mL
- half-life [48]: 3 h
- Vd [49]: 2.052 L
- AUC [50]: 48.8 ng·h/mL
- fraction unbound [51]: 0.04
